Values quoted from earlier work in patent publication US20100049492A1, “METHOD AND APPARATUS FOR MODELING SKIN SENSITIZATION” (Entelos, Inc., priority 2006, published 2010).

Tested on: lymph node (LN) proliferation
Conditions: categories based on data available in the public domain
For `O=C/C=C/c1ccccc1` [cinnamic aldehyde], the “chemical category (skin sensitizer strength)” value (“chemical category” below) is given as “moderate sensitizers”. For `CC=Cc1ccc(O)c(OC)c1` [isoeugenol], the “chemical category” value is given as “moderate sensitizers”. For `CCCCCCCC/C=C\CCCCCCCC(=O)OCCOCC(OCCO)C1OCC(OCCO)C1OCCO` (stereo not drawn) [Tween 80], the “chemical category” value is listed as “non-sensitizers”. In the case of `Nc1ccc(C(=O)O)cc1` [PABA], the “chemical category” value is listed as “non-sensitizers”. In the case of `CCO/C=C1\N=C(c2ccccc2)OC1=O` [oxazalone], the “chemical category” value is listed as “strong sensitizers”. In the case of `Oc1ccc(O)cc1` [hydroquinone], the “chemical category” value is given as “strong sensitizers”.
